Assay results published in ChEMBL document CHEMBL1275576, “In vitro activity of tomopenem (CS-023/RO4908463) against anaerobic bacteria” (Antimicrob Agents Chemother, 2009).

Tests used:
Type in all cases: functional
Anaerococcus prevotii = test: Antimicrobial activity against Anaerococcus prevotii ATCC 9321 by agar dilution method in presence of 5% laked sheep blood
Prevotella bivia = test: Antimicrobial activity against Prevotella bivia ATCC 29303 by agar dilution method in presence of 5% laked sheep blood; conditions: DSM 20514
Clostridium septicum = test: Antimicrobial activity against Clostridium septicum ATCC 12464 by agar dilution method in presence of 5% laked sheep blood
Porphyromonas gingivalis = test: Antimicrobial activity against Porphyromonas gingivalis ATCC 33277 by agar dilution method in presence of 5% laked sheep blood
[1] = test system: Bacteroides eggerthii DSM 20697; test: Antimicrobial activity against Bacteroides eggerthii ATCC 27754 by agar dilution method in presence of 5% laked sheep blood
Bacteroides fragilis [2] = test: Antimicrobial activity against Bacteroides fragilis NCTC 10581 by agar dilution method in presence of 5% laked sheep blood
Lactobacillus salivarius = test: Antimicrobial activity against Lactobacillus salivarius subsp. salivarius JCM 1231 by agar dilution method in presence of 5% laked sheep blood; conditions: Ligilactobacillus salivarius
Fusobacterium varium = test: Antimicrobial activity against Fusobacterium varium ATCC 8501 by agar dilution method in presence of 5% laked sheep blood
[3] = test system: Lactiplantibacillus plantarum; test: Antimicrobial activity against Lactobacillus plantarum JCM 1149 by agar dilution method in presence of 5% laked sheep blood
Clostridioides difficile = test: Antimicrobial activity against Clostridium difficile GAI 10029 by agar dilution method in presence of 5% laked sheep blood
Lacticaseibacillus casei = test: Antimicrobial activity against Lactobacillus casei subsp. casei JCM 1134 by agar dilution method in presence of 5% laked sheep blood
Peptoniphilus indolicus = test: Antimicrobial activity against Peptoniphilus indolicus GAI 0915 by agar dilution method in presence of 5% laked sheep blood
Capnocytophaga ochracea = test: Antimicrobial activity against Capnocytophaga ochracea GAI 5586 by agar dilution method in presence of 5% laked sheep blood
[4] = test system: Fusobacterium necrophorum; test: Antimicrobial activity against Fusobacterium necrophorum ATCC 25286 by agar dilution method in presence of 5% laked sheep blood
[5] = test system: Staphylococcus saccharolyticus; test: Antimicrobial activity against Staphylococcus saccharolyticus ATCC 14953 by agar dilution method in presence of 5% laked sheep blood
Bilophila wadsworthia = test: Antimicrobial activity against Bilophila wadsworthia WAL 7959 by agar dilution method in presence of 5% laked sheep blood
Prevotella intermedia = test: Antimicrobial activity against Prevotella intermedia ATCC 25611 by agar dilution method in presence of 5% laked sheep blood
Bacteroides fragilis [6] = test: Antimicrobial activity against carbapenemase-producing Bacteroides fragilis GAI 30079 by agar dilution method in presence of 5% laked sheep blood
Bacteroides fragilis [7] = test: Antimicrobial activity against Bacteroides fragilis GAI 0558 by agar dilution method in presence of 5% laked sheep blood
Phocaeicola vulgatus = test: Antimicrobial activity against Bacteroides vulgatus GAI 0673 by agar dilution method in presence of 5% laked sheep blood
Bacteroides fragilis [8] = test: Antimicrobial activity against carbapenemase-producing Bacteroides fragilis GAI 30144 by agar dilution method in presence of 5% laked sheep blood
Prevotella corporis = test: Antimicrobial activity against Prevotella corporis GAI 91000 by agar dilution method in presence of 5% laked sheep blood
[9] = test system: Bacteroides thetaiotaomicron; test: Antimicrobial activity against Bacteroides thetaiotaomicron ATCC 29741 by agar dilution method in presence of 5% laked sheep blood
[10] = test system: Sutterella wadsworthensis; test: Antimicrobial activity against Sutterella wadsworthensis ATCC 51579 by agar dilution method in presence of 5% laked sheep blood
Thomasclavelia ramosa = test: Antimicrobial activity against Clostridium ramosum ATCC 25582 by agar dilution method in presence of 5% laked sheep blood
[11] = test system: Streptococcus constellatus; test: Antimicrobial activity against Streptococcus constellatus ATCC 27923 by agar dilution method in presence of 5% laked sheep blood
Veillonella parvula = test: Antimicrobial activity against Veillonella parvula ATCC 10790 by agar dilution method in presence of 5% laked sheep blood
Schaalia odontolytica = test: Antimicrobial activity against Actinomyces odontolyticus GAI 91002 by agar dilution method in presence of 5% laked sheep blood
[12] = test system: Enterocloster clostridioformis; test: Antimicrobial activity against Clostridium clostridioforme NCTC 11224 by agar dilution method in presence of 5% laked sheep blood
[13] = test system: Propionibacterium granulosum; test: Antimicrobial activity against Propionibacterium granulosum ATCC 25564 by agar dilution method in presence of 5% laked sheep blood; conditions: Cutibacterium granulosum
[14] = test system: Campylobacter ureolyticus; test: Antimicrobial activity against Bacteroides ureolyticus NCTC 10941 by agar dilution method in presence of 5% laked sheep blood
[15] = test system: Limosilactobacillus fermentum; test: Antimicrobial activity against Lactobacillus fermentum JCM 1173 by agar dilution method in presence of 5% laked sheep blood
Campylobacter gracilis = test: Antimicrobial activity against Campylobacter gracilis JCM 8538 by agar dilution method in presence of 5% laked sheep blood
Bacteroides ovatus = test: Antimicrobial activity against Bacteroides ovatus ATCC 8483 by agar dilution method in presence of 5% laked sheep blood
[16] = test system: Bacteroides heparinolyticus; test: Antimicrobial activity against Prevotella heparinolytica ATCC 35895 by agar dilution method in presence of 5% laked sheep blood
[17] = test system: Peptostreptococcus anaerobius; test: Antimicrobial activity against Peptostreptococcus anaerobius ATCC 27337 by agar dilution method in presence of 5% laked sheep blood
Parvimonas micra = test: Antimicrobial activity against Parvimonas micra VPI 5464-1 by agar dilution method in presence of 5% laked sheep blood
Cutibacterium acnes = test: Antimicrobial activity against Propionibacterium acnes ATCC 11828 by agar dilution method in presence of 5% laked sheep blood
Hoylesella oralis = test: Antimicrobial activity against Prevotella oralis ATCC 33269 by agar dilution method in presence of 5% laked sheep blood
Bacteroides fragilis [18] = test: Antimicrobial activity against Bacteroides fragilis ATCC 25285 by agar dilution method in presence of 5% laked sheep blood; conditions: NCTC 9343
Prevotella buccae = test: Antimicrobial activity against Prevotella buccae ATCC 33574 by agar dilution method in presence of 5% laked sheep blood; conditions: Segatella buccae
[19] = Antimicrobial activity against Parabacteroides distasonis ATCC 8503 by agar dilution method in presence of 5% laked sheep blood
Bacteroides fragilis [20] = test: Antimicrobial activity against Bacteroides fragilis GAI 7955 by agar dilution method in presence of 5% laked sheep blood
[21] = Antimicrobial activity against Finegoldia magna ATCC 29328 by agar dilution method in presence of 5% laked sheep blood
[22] = test system: Lactobacillus acidophilus; test: Antimicrobial activity against Lactobacillus acidophilus JCM 1132 by agar dilution method in presence of 5% laked sheep blood
Bifidobacterium bifidum = test: Antimicrobial activity against Bifidobacterium bifidum JCM 1255 by agar dilution method in presence of 5% laked sheep blood

SMILES: C[C@@H](O)[C@H]1C(=O)N2C(C(=O)O)=C(S[C@@H]3CN[C@H](C(=O)N(C)C)C3)[C@H](C)[C@H]12 [MEROPENEM]
- MIC (Anaerococcus prevotii): 0.25 µg/mL
- MIC (Prevotella bivia): 0.25 µg/mL
- MIC (Clostridium septicum): 0.06 µg/mL
- MIC (Porphyromonas gingivalis): ≤ 0.015 µg/mL
- MIC [1]: 0.125 µg/mL
- MIC (Bacteroides fragilis [2]): 0.25 µg/mL
- MIC (Lactobacillus salivarius): 1 µg/mL
- MIC (Fusobacterium varium): 0.25 µg/mL
- MIC [3]: 0.25 µg/mL
- MIC (Clostridioides difficile): 4 µg/mL
- MIC (Lacticaseibacillus casei): 2 µg/mL
- MIC (Peptoniphilus indolicus): ≤ 0.015 µg/mL
- MIC (Capnocytophaga ochracea): 0.03 µg/mL
- MIC [4]: ≤ 0.015 µg/mL
- MIC [5]: 0.125 µg/mL
- MIC (Bilophila wadsworthia): 0.03 µg/mL
- MIC (Prevotella intermedia): 0.06 µg/mL
- MIC (Bacteroides fragilis [6]): > 128 µg/mL
- MIC (Bacteroides fragilis [7]): 0.05 µg/mL
- MIC (Phocaeicola vulgatus): 0.125 µg/mL
- MIC (Bacteroides fragilis [8]): > 128 µg/mL
- MIC (Prevotella corporis): 0.03 µg/mL
- MIC [9]: 0.25 µg/mL
- MIC [10]: 0.06 µg/mL
- MIC (Thomasclavelia ramosa): 1 µg/mL
- MIC [11]: 0.05 µg/mL
- MIC (Veillonella parvula): 0.03 µg/mL
- MIC (Schaalia odontolytica): 0.5 µg/mL
- MIC [12]: 0.25 µg/mL
- MIC [13]: 1 µg/mL
- MIC [14]: ≤ 0.015 µg/mL
- MIC [15]: 0.25 µg/mL
- MIC (Campylobacter gracilis): 0.06 µg/mL
- MIC (Bacteroides ovatus): 0.25 µg/mL
- MIC [16]: 0.06 µg/mL
- MIC [17]: 0.5 µg/mL
- MIC (Parvimonas micra): 0.125 µg/mL
- MIC (Cutibacterium acnes): 2 µg/mL
- MIC (Hoylesella oralis): 0.03 µg/mL
- MIC (Bacteroides fragilis [18]): 0.25 µg/mL
- MIC (Prevotella buccae): 0.25 µg/mL
- MIC [19]: 0.125 µg/mL
- MIC (Bacteroides fragilis [20]): 2 µg/mL
- MIC [21]: 0.125 µg/mL
- MIC [22]: 0.25 µg/mL
- MIC (Bifidobacterium bifidum): 0.06 µg/mL
